Assay results: PMC8872791, “MadR mediates acyl CoA-dependent regulation of mycolic acid desaturation in mycobacteria” (Proceedings of the National Academy of Sciences of the …, 2022)

Columns and labels:
Format in all cases: binding
[1] = biological target: T1, MadR (mycolic acid desaturase regulator, Rv0472c) (Mycobacterium tuberculosis, UniProt P9WMD9); test: intrinsic tryptophan fluorescence quenching
[2] = biological target: T1, MadR (mycolic acid desaturase regulator, Rv0472c); test: intrinsic tryptophan fluorescence quenching; EMSA shows release from desA1/desA2 promoters
[3] = biological target: T1, MadR (mycolic acid desaturase regulator, Rv0472c); test: intrinsic tryptophan fluorescence quenching (binds, but does not release promoter DNA)

T1 sequence (P9WMD9 whole entry, looked up): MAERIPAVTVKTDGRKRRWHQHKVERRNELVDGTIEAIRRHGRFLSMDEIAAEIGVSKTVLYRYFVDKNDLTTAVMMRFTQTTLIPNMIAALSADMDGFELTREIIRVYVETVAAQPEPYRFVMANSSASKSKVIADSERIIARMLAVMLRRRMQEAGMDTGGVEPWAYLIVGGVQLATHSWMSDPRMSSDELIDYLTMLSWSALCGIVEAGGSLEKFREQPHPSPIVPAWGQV

Structure (SMILES) | Kd [2] | Kd [3] | further results
CCCCCCCCCCCCCC(=O)SCCNC(=O)CCNC(=O)[C@H](O)C(C)(C)COP(=O)(O)OP(=O)(O)OC[C@H]1O[C@@H](n2cnc3c(N)ncnc32)[C@H](O)[C@@H]1OP(=O)(O)O [C14:0-CoA, myristoyl-CoA] |  |  | Kd [1]: 12.4 µM
CCCCCCCCCCCCCCCC(=O)SCCNC(=O)CCNC(=O)[C@H](O)C(C)(C)COP(=O)(O)OP(=O)(O)OC[C@H]1O[C@@H](n2cnc3c(N)ncnc32)[C@H](O)[C@@H]1OP(=O)(O)O [C16:0-CoA, palmitoyl-CoA] | 10.7 µM |  | 
CCCCCCCCCCCCCCCCCC(=O)SCCNC(=O)CCNC(=O)[C@H](O)C(C)(C)COP(=O)(O)OP(=O)(O)OC[C@H]1O[C@@H](n2cnc3c(N)ncnc32)[C@H](O)[C@@H]1OP(=O)(O)O [C18:0-CoA, stearoyl-CoA] | 7.73 µM |  | 
CCCCCCCC/C=C\CCCCCCCC(=O)SCCNC(=O)CCNC(=O)[C@H](O)C(C)(C)COP(=O)(O)OP(=O)(O)OC[C@H]1O[C@@H](n2cnc3c(N)ncnc32)[C@H](O)[C@@H]1OP(=O)(O)O [C18:1-CoA, oleoyl-CoA] |  | 9.55 µM | 
CCCCC/C=C\C/C=C\CCCCCCCC(=O)SCCNC(=O)CCNC(=O)[C@H](O)C(C)(C)COP(=O)(O)OP(=O)(O)OC[C@H]1O[C@@H](n2cnc3c(N)ncnc32)[C@H](O)[C@@H]1OP(=O)(O)O [C18:2-CoA, linoleoyl-CoA] |  | 9.88 µM | 
CCCCCCCCCCCCCCCCCCCCCCCC(=O)SCCNC(=O)CCNC(=O)[C@H](O)C(C)(C)COP(=O)(O)OP(=O)(O)OC[C@H]1O[C@@H](n2cnc3c(N)ncnc32)[C@H](O)[C@@H]1OP(=O)(O)O [C24:0-CoA, lignoceroyl-CoA] | 18.1 µM |  | 
